These are literature values, as cited in patent US11793762B2, “Composition and method for reducing joint pain associated with hemarthrosis and hemophilic arthropathy” (UPEXMED CO. LTD., priority 2018, dated 2023).

SMILES strings stand for the structures. ≈ marks a conversion by molar mass, not a printed value.

Take `Cc1ccc(-c2cc(C(F)(F)F)nn2-c2ccc(S(N)(=O)=O)cc2)cc1` [Celecoxib]: the solubility in water was 4300 µg/mL (≈ 11.3 mM).
